{
  "source": "the supplement of paper PMC10307832",
  "test_in_all_cases": "relative viability (nuclei count vs DMSO), 5 days (fraction); higher = more cells survive",
  "key": {"[1]": {"tested_on": "NCI-H2085", "outline": "(§1)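 Nuclei were stained with Hoechst during a one-step fixation (final 0.05% Triton X-100, 1% formaldehyde, 1 ug/ml Hoechst) carried out 5 days after dosing, then counted on 4× images. The cells, lung cancer lines in 1536-well plates, had been dosed by pin tool the day after seeding with one drug alone or a fixed anchor-drug dose plus five library-drug doses (not always all listed) in √10 steps. Relative viability is the nuclei count in treated wells divided by that in vehicle wells, and each value is the median of duplicate plates.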"}, "[2]": {"tested_on": "NCI-H520", "outline": "as §1"}, "[3]": {"tested_on": "SK-MES-1", "outline": "as §1"}, "[4]": {"tested_on": "HCC-827", "outline": "as §1"}, "[5]": {"tested_on": "NCI-H1395", "outline": "as §1"}, "[6]": {"tested_on": "H3255", "outline": "as §1"}, "[7]": {"tested_on": "ChaGo-K-1", "outline": "as §1"}, "[8]": {"tested_on": "NCI-H2023", "outline": "as §1"}, "[9]": {"tested_on": "NCI-H838", "outline": "as §1"}, "[10]": {"tested_on": "EMC-BAC-2", "outline": "as §1"}, "[11]": {"tested_on": "HCC-44", "outline": "as §1"}},
  "data": [
    {"smiles": "CC(=O)O[C@@]12CO[C@@H]1C[C@H](O)[C@@]1(C)C(=O)[C@H](O)C3=C(C)[C@@H](OC(=O)[C@H](O)[C@@H](NC(=O)OC(C)(C)C)c4ccccc4)C[C@@](O)([C@@H](OC(=O)c4ccccc4)[C@H]21)C3(C)C", "note": "[Docetaxel] + CS(=O)(=O)N1CCN(Cc2cc3nc(-c4cccc5[nH]ncc45)nc(N4CCOCC4)c3s2)CC1 [Pictilisib] (partner 1 µM)", "values": [
      {"measurement": "relative viability", "setting": "[1]; first compound 0.0002 µM", "result": 0.532},
      {"measurement": "relative viability", "setting": "[1]; first compound 0.000632 µM", "result": 0.467},
      {"measurement": "relative viability", "setting": "[1]; first compound 0.002 µM", "result": 0.41},
      {"measurement": "relative viability", "setting": "[1]; first compound 0.006325 µM", "result": 0.374},
      {"measurement": "relative viability", "setting": "[1]; first compound 0.02 µM", "result": 0.237},
      {"measurement": "relative viability", "setting": "[2]; first compound 0.0002 µM", "result": 0.274},
      {"measurement": "relative viability", "setting": "[2]; first compound 0.000632 µM", "result": 0.27},
      {"measurement": "relative viability", "setting": "[2]; first compound 0.002 µM", "result": 0.239},
      {"measurement": "relative viability", "setting": "[2]; first compound 0.006325 µM", "result": 0.231},
      {"measurement": "relative viability", "setting": "[2]; first compound 0.02 µM", "result": 0.157},
      {"measurement": "relative viability", "setting": "[3]; first compound 0.0002 µM", "result": 0.303},
      {"measurement": "relative viability", "setting": "[3]; first compound 0.000632 µM", "result": 0.34},
      {"measurement": "relative viability", "setting": "[3]; first compound 0.006325 µM", "result": 0.206},
      {"measurement": "relative viability", "setting": "[3]; first compound 0.02 µM", "result": 0.119},
      {"measurement": "relative viability", "setting": "[4]; first compound 0.0002 µM", "result": 0.904},
      {"measurement": "relative viability", "setting": "[4]; first compound 0.000632 µM", "result": 1.08},
      {"measurement": "relative viability", "setting": "[4]; first compound 0.002 µM", "result": 0.787},
      {"measurement": "relative viability", "setting": "[4]; first compound 0.006325 µM", "result": 0.466},
      {"measurement": "relative viability", "setting": "[4]; first compound 0.02 µM", "result": 0.363},
      {"measurement": "relative viability", "setting": "[5]; first compound 0.0002 µM", "result": 0.53},
      {"measurement": "relative viability", "setting": "[5]; first compound 0.000632 µM", "result": 0.617},
      {"measurement": "relative viability", "setting": "[5]; first compound 0.002 µM", "result": 0.543},
      {"measurement": "relative viability", "setting": "[5]; first compound 0.006325 µM", "result": 0.382},
      {"measurement": "relative viability", "setting": "[5]; first compound 0.02 µM", "result": 0.384},
      {"measurement": "relative viability", "setting": "[6]; first compound 0.0002 µM", "result": 0.395},
      {"measurement": "relative viability", "setting": "[6]; first compound 0.000632 µM", "result": 0.544},
      {"measurement": "relative viability", "setting": "[6]; first compound 0.002 µM", "result": 0.272},
      {"measurement": "relative viability", "setting": "[6]; first compound 0.006325 µM", "result": 0.21},
      {"measurement": "relative viability", "setting": "[6]; first compound 0.02 µM", "result": 0.195},
      {"measurement": "relative viability", "setting": "[7]; first compound 0.0002 µM", "result": 0.771},
      {"measurement": "relative viability", "setting": "[7]; first compound 0.000632 µM", "result": 0.421},
      {"measurement": "relative viability", "setting": "[7]; first compound 0.002 µM", "result": 0.44},
      {"measurement": "relative viability", "setting": "[7]; first compound 0.006325 µM", "result": 0.354},
      {"measurement": "relative viability", "setting": "[7]; first compound 0.02 µM", "result": 0.201},
      {"measurement": "relative viability", "setting": "[8]; first compound 0.0002 µM", "result": 0.213},
      {"measurement": "relative viability", "setting": "[8]; first compound 0.000632 µM", "result": 0.188},
      {"measurement": "relative viability", "setting": "[8]; first compound 0.002 µM", "result": 0.142},
      {"measurement": "relative viability", "setting": "[8]; first compound 0.006325 µM", "result": 0.11},
      {"measurement": "relative viability", "setting": "[8]; first compound 0.02 µM", "result": 0.0766},
      {"measurement": "relative viability", "setting": "[9]; first compound 0.0002 µM", "result": 0.477},
      {"measurement": "relative viability", "setting": "[9]; first compound 0.000632 µM", "result": 0.473},
      {"measurement": "relative viability", "setting": "[9]; first compound 0.002 µM", "result": 0.276},
      {"measurement": "relative viability", "setting": "[9]; first compound 0.006325 µM", "result": 0.149},
      {"measurement": "relative viability", "setting": "[9]; first compound 0.02 µM", "result": 0.116},
      {"measurement": "relative viability", "setting": "[10]; first compound 0.0002 µM", "result": 0.555},
      {"measurement": "relative viability", "setting": "[10]; first compound 0.000632 µM", "result": 0.469},
      {"measurement": "relative viability", "setting": "[10]; first compound 0.002 µM", "result": 0.324},
      {"measurement": "relative viability", "setting": "[10]; first compound 0.006325 µM", "result": 0.271},
      {"measurement": "relative viability", "setting": "[10]; first compound 0.02 µM", "result": 0.207},
      {"measurement": "relative viability", "setting": "[11]; first compound 0.0002 µM", "result": 0.406},
      {"measurement": "relative viability", "setting": "[11]; first compound 0.000632 µM", "result": 0.44},
      {"measurement": "relative viability", "setting": "[11]; first compound 0.002 µM", "result": 0.421},
      {"measurement": "relative viability", "setting": "[11]; first compound 0.006325 µM", "result": 0.144},
      {"measurement": "relative viability", "setting": "[11]; first compound 0.02 µM", "result": 0.0949}
    ]}
  ]
}
